Reference: publication PMC2776708 (Bioorganic & medicinal chemistry letters, 2009)
Where two headings read alike, the source gives them in different places.

Assays:
[1] = biological target: T1, WNV NS2B-NS3 proteinase (West Nile virus, UniProt Q9Q6P4); test: WNV NS2B-NS3 proteinase activity assay with Pyr-RTKR-AMC fluorogenic substrate; type: biochemical; settings: for inhibitory activity (in words): qualitative statement
[2] = Stability; type: physicochemical; settings: qualitative statement
[3] = biological target: T1, WNV NS2B-NS3 proteinase; test: Stability in the in vitro assay buffer with WNV NS2B-NS3 proteinase; settings: Figure 2
[4] = biological target: T1, WNV NS2B-NS3 proteinase; settings: products of ester hydrolysis; cited from earlier work
[5] = Stability in the in vitro assay buffer without enzyme; type: physicochemical; settings: absence of enzyme, Figure 2

T1 sequence (Q9Q6P4 1506-1683): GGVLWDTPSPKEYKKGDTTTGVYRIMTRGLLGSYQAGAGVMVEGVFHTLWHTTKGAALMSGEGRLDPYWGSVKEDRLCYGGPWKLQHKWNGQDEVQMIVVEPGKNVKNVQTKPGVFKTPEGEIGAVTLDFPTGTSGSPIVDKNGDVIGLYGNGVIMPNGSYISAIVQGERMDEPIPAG
T1 sequence (Q9Q6P4 1375-1505): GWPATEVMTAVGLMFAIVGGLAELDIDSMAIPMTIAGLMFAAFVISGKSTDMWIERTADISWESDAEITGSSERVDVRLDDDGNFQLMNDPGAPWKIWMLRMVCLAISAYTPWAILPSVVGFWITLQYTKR

SMILES: COc1ccc(Cn2nc(C)cc2CC(O)c2ccccc2)cc1 (stereo not shown) [Compound 12a]
- IC50 [1]: > 100 µM

SMILES: COc1ccc(S(=O)(=O)n2nc(OC(=O)c3ccccc3OC)cc2N)cc1 [Compound 7o]
- inhibitory activity (in words) [1]: inactive

SMILES: COc1ccc(S(=O)(=O)n2nc(OC(=O)c3cccs3)cc2N)cc1 [Compound 2]
- IC50 [1]: 0.11 µM

SMILES: COc1ccc(S(=O)(=O)n2nc(OC(=O)c3ccccc3[N+](=O)[O-])cc2N)cc1 [Compound 7p]
- IC50 [1]: > 100 µM
- inhibitory activity (in words) [1]: inactive

SMILES: COc1ccc(S(=O)(=O)n2nc(OC(=O)c3c(Cl)cccc3Cl)cc2N)cc1 [Compound 7n]
- IC50 [1]: > 100 µM
- inhibitory activity (in words) [1]: complete loss of activity

SMILES: COc1ccc(Cn2nc(C)cc2OC(=O)c2ccccc2)cc1 [Compound 10a]
- stability in pH 8 buffer (in words) [2]: significantly more stable
- stability in presence of enzyme (in words) [3]: approximately the same in the presence or absence of the enzyme

SMILES: COc1ccc(Cn2nc(C)cc2O)cc1 [Compound 8, 1-(4-methoxybenzyl)-3-methyl-1H-pyrazol-5-ol]
- IC50 [4]: > 100 µM

SMILES: COc1ccc(S(=O)(=O)n2nc(OC(=O)c3ccccc3C)cc2N)cc1 [Compound 7f]
- inhibitory activity (in words) [1]: retained its micromolar inhibitory activity

SMILES: COc1ccc(S(=O)(=O)n2nc(OC(=O)c3ccc(F)cc3F)cc2N)cc1 [Compound 7e]
- stability in assay buffer (in words) [5]: relatively stable
- stability in presence of enzyme (in words) [3]: degraded rapidly

SMILES: COc1ccc(Cn2nc(C)cc2CC(O)c2c(F)cccc2F)cc1 (stereo not shown) [Compound 12b]
- IC50 [1]: > 100 µM

SMILES: COc1ccc(Cn2nc(C)cc2CC(=O)c2ccccc2)cc1 [Compound 13a]
- IC50 [1]: > 100 µM

SMILES: COc1ccc(S(=O)(=O)n2nc(OC(=O)c3c(F)cccc3F)cc2N)cc1 [Compound 7a]
- stability in pH 8 buffer (in words) [2]: significantly more stable

SMILES: COc1ccc(S(=O)(=O)n2nc(OC(=O)c3ccccc3)cc2N)cc1 [Compound 1]
- IC50 [1]: 0.105 µM

SMILES: Cc1cc(NC(=O)c2ccccc2)n(-c2ccccc2)n1 [Compound 15]
- stability in pH 8 buffer (in words) [2]: highly stable

SMILES: COc1ccc(Cn2nc(C)cc2/C=C/c2c(F)cccc2F)cc1 [Compound 14]
- stability in pH 8 buffer (in words) [2]: highly stable
